According to ChEMBL document CHEMBL3885861, “Open TG-GATES”:

Species on record: Rattus norvegicus
Assay: Open TG-GATES - Regimen: Single
Format: toxicity, organism-based, Sprague-Dawley
Parameters: regimen Single, gender Male, age 6 weeks
Settings: in vivo, po, route gavage; for gamma-GTP / ALP / ALT / AST / BUN / CRE / Ca / Cl / DBIL / GLC / IP / K / LDH / Na / PL / RALB / TBIL / TC / TG / TP: tissue Plasma; for APTT / Bas / Eos / Fbg / Hb / Ht / Lym / MCH / MCHC / Mono / Neu / Plat / RBC / Ret / WBC: tissue Blood; for KIDNEY_L / KIDNEY_R / KIDNEY_TOTAL: tissue Kidney; for LIVER: tissue Liver

## O=C(CCCN1CCC(O)(c2ccc(Cl)cc2)CC1)c1ccc(F)cc1 [HALOPERIDOL]
0 mg/kg, 24 h, dose level Control
  gamma-GTP: 1 IU/L
3 mg/kg, 3 h, dose level Low
  TERMINAL_BW: 203.1 g
  APTT: 16.9 s
  Bas: 0%
  Eos: 0.8%
  Fbg: 205.8 mg/dL
  Hb: 13.5 g/dL
  Ht: 40.4%
  Lym: 70.4%
  MCH: 21.8 pg
  MCHC: 33.5%
  Mono: 8.2%
  Neu: 20.6%
  Plat: 101.1 x10_4/uL
  RBC: 620.8 x10_4/ul
  Ret: 8.3%
  WBC: 102.1 x10_2/uL
  KIDNEY_L: 0.9 g
  KIDNEY_R: 0.9 g
  KIDNEY_TOTAL: 1.8 g
  LIVER: 9.6 g
  ALP: 1074.8 IU/L
  ALT: 42.2 IU/L
  AST: 61.2 IU/L
  BUN: 12.6 mg/dL
  CRE: 0.5 mg/dL
  Ca: 11.1 mg/dL
  Cl: 105.2 meq/L
  DBIL: 0.028 mg/dL
  GLC: 202.8 mg/dL
  IP: 10.4 mg/dL
  K: 4.7 meq/L
  LDH: 92.6 IU/L
  Na: 139.4 meq/L
  PL: 141.2 mg/dL
  RALB: 3.6 g/dL
  TBIL: 0.3 mg/dL
  TC: 78.6 mg/dL
  TG: 41.6 mg/dL
  TP: 5.7 g/dL
  gamma-GTP: 1.4 IU/L
3 mg/kg, 6 h, dose level Low
  TERMINAL_BW: 200.5 g
  APTT: 16.6 s
  Bas: 0%
  Eos: 0.6%
  Fbg: 205.2 mg/dL
  Hb: 13.5 g/dL
  Ht: 40.5%
  Lym: 77%
  MCH: 21.7 pg
  MCHC: 33.3%
  Mono: 7.2%
  Neu: 15.2%
  Plat: 103.7 x10_4/uL
  RBC: 619.8 x10_4/ul
  Ret: 8.8%
  WBC: 90.9 x10_2/uL
  KIDNEY_L: 0.9 g
  KIDNEY_R: 0.9 g
  KIDNEY_TOTAL: 1.9 g
  LIVER: 9 g
  ALP: 897.8 IU/L
  ALT: 34.4 IU/L
  AST: 57.2 IU/L
  BUN: 9.6 mg/dL
  CRE: 0.4 mg/dL
  Ca: 10.6 mg/dL
  Cl: 105.8 meq/L
  DBIL: 0.034 mg/dL
  GLC: 184.4 mg/dL
  IP: 10.6 mg/dL
  K: 4.9 meq/L
  LDH: 81.6 IU/L
  Na: 139.2 meq/L
  PL: 142 mg/dL
  RALB: 3.6 g/dL
  TBIL: 0.3 mg/dL
  TC: 84.4 mg/dL
  TG: 32.4 mg/dL
  TP: 5.4 g/dL
  gamma-GTP: 1.6 IU/L
3 mg/kg, 9 h, dose level Low
  TERMINAL_BW: 199.3 g
  APTT: 16.8 s
  Bas: 0%
  Eos: 0.6%
  Fbg: 204.8 mg/dL
  Hb: 13.6 g/dL
  Ht: 40.5%
  Lym: 70.4%
  MCH: 22 pg
  MCHC: 33.6%
  Mono: 9.6%
  Neu: 19.4%
  Plat: 102.7 x10_4/uL
  RBC: 621.4 x10_4/ul
  Ret: 9.5%
  WBC: 60.9 x10_2/uL
  KIDNEY_L: 0.9 g
  KIDNEY_R: 1 g
  KIDNEY_TOTAL: 1.9 g
  LIVER: 8.5 g
  ALP: 810.6 IU/L
  ALT: 28.4 IU/L
  AST: 56.6 IU/L
  BUN: 10.2 mg/dL
  CRE: 0.5 mg/dL
  Ca: 10.2 mg/dL
  Cl: 106.6 meq/L
  DBIL: 0.018 mg/dL
  GLC: 183.4 mg/dL
  IP: 10.6 mg/dL
  K: 4.6 meq/L
  LDH: 84 IU/L
  Na: 139.2 meq/L
  PL: 126.6 mg/dL
  RALB: 3.6 g/dL
  TBIL: 0.4 mg/dL
  TC: 71 mg/dL
  TG: 31.2 mg/dL
  TP: 5.5 g/dL
  gamma-GTP: 1.8 IU/L
3 mg/kg, 24 h, dose level Low
  TERMINAL_BW: 213.8 g
  APTT: 15.9 s
  Bas: 0%
  Eos: 1.2%
  Fbg: 198.8 mg/dL
  Hb: 13.6 g/dL
  Ht: 40.8%
  Lym: 75.6%
  MCH: 22.6 pg
  MCHC: 33.3%
  Mono: 6%
  Neu: 17.2%
  Plat: 105.6 x10_4/uL
  RBC: 601 x10_4/ul
  Ret: 9.4%
  WBC: 75.9 x10_2/uL
  KIDNEY_L: 1 g
  KIDNEY_R: 1 g
  KIDNEY_TOTAL: 1.9 g
  LIVER: 11.3 g
  ALP: 957.8 IU/L
  ALT: 35 IU/L
  AST: 59.2 IU/L
  BUN: 21.2 mg/dL
  CRE: 0.6 mg/dL
  Ca: 11.3 mg/dL
  Cl: 105.4 meq/L
  DBIL: 0.026 mg/dL
  GLC: 180.8 mg/dL
  IP: 7.9 mg/dL
  K: 5 meq/L
  LDH: 104.8 IU/L
  Na: 139.2 meq/L
  PL: 156.6 mg/dL
  RALB: 3.8 g/dL
  TBIL: 0.4 mg/dL
  TC: 80.6 mg/dL
  TG: 102.4 mg/dL
  TP: 5.9 g/dL
